According to patent US7163961B1, “Drugs, foods and oral compositions containing stilbene-type compounds” (Sunstar Inc., priority 1999, dated 2007):

Tests used:
[1] = tested on: male stroke-prone spontaneously hypertensive rats (SHRSP/izm); assay: Preventive action on hypertension and cardiac hypertrophy in male rats; assay type: in vivo, rat; conditions: 8 weeks
Protocol: The ability of the composition of the invention to prevent a rise in blood pressure and cardiac hypertrophy was researched using male rats. Firstly, 5- to 6-week-old male stroke-prone spontaneously hypertensive rats (SHRSP/izm) were grouped into a resveratrol group and a control group. The rats were fed ad libitum with “Powdery Mixed Feed SP” (manufacture by Funahashi Farm). The resveratrol group was administered resveratrol in an amount of 5 mg/kg per day. The administration was conducted by the intended clinical route, i.e., orally. The rats were force-fed orally once a day with a Teflon gastric tube. The dose was adjusted to 1 ml per 100 g of the body weight using a water for injection listed in The Japanese Pharmacopoeia, calculated according to the measured body weight of the individual rats. The control group was given the same amount of the water for injection listed in the Japanese Pharmacopoeia only. Each group had 5 rats that were bred for 8 weeks. The blood pressure of the rats was measured every 2 weeks without anesthesia by means of a rat caudal artery sphygmomanometer. After the breeding period, the rats were slaughtered for dissection and the ratio of the weight of the heart to the total body weight of the rats was measured.

[2] = tested on: ovariectomized female stroke-prone spontaneously hypertensive rats (SHRSP/izm); assay: Preventive action on hypertension, cardiac hypertrophy and cerebral apoplexy in ovariectomized rats; assay type: in vivo, rat; conditions: feed with 1.5 g/kg of resveratrol added, 8 weeks
Description: Rats subjected to climacteric conditions were studied to estimate the effect of the composition of the invention in preventing a rise in blood pressure, cardiac hypertrophy and cerebral apoplexy. Specifically, 18-week-old female stroke-prone spontaneously hypertensive rats (SHRSP/izm) were ovariectomized and subjected to climacteric conditions. Then, the rats were grouped into a resveratrol group and a control group. Also provided a sham group of rats which received a sham operation, that is, a laparotomy without ovary removal. The rats were fed ad libitum. The control group and sham group were fed with “Powdery Mixed Feed SP” (manufactured by Funahashi Farm), and the resveratrol group was fed with the same mixed feed with 1.5 g/kg of resveratrol added. Five rats in each group were bred for 8 weeks. The blood pressure of the rats was measured every week without anesthesia by means of a rat caudal artery sphygmomanometer. After the breeding period, the rats were slaughtered for dissection.

[3] = tested on: ovariectomized female stroke-prone spontaneously hypertensive rats (SHRSP/izm); assay: Preventive action on decrease in bone weight in ovariectomized rats (climacteric conditions); assay type: in vivo, rat; conditions: left thigh bone, resveratrol in feed about 20 mg/kg per day, 8 weeks, mean ± SD, n = 5
Protocol: Rats subjected to climacteric conditions were studied to estimate the effect of the composition of the invention in preventing a decrease in bone weight. Specifically, 18-week-old female stroke-prone spontaneously hypertensive rats (SHRSP/izm) were ovariectomized and subjected to climacteric conditions. Then, the rats were grouped into a resveratrol group to which resveratrol was administered and a control group. Also provided was a sham group of rats which received a sham operation, that is, a laparotomy without ovary removal. The rats were fed ad libitum. The control group and sham group were fed with “Powdery Mixed Feed SP” (manufactured by Funahashi Farm), and the resveratrol group was fed with the same feed with resveratrol added thereto. The amount of added resveratrol administered was adjusted to about 20 mg/kg per day. Each group had 5 rats that were bred for 8 weeks. After the breeding period, the rats were slaughtered for dissection. The left thigh bone was removed from each group's rats. The thigh bones were tested for their bone density and measured for their breaking load and breaking energy values using “EZ-test” (manufactured by Shimadzu Corporation), whereby their bone strength was evaluated.

osteoblastic cells = conditions: cultured osteoblastic cell strain; Biochem. Biophys. Res. Commun. 253, 859–863 (1998); cited from earlier work

Oc1ccc(C=Cc2cc(O)cc(O)c2)cc1 [Resveratrol, 3,5,4′-stilbenetriol]
Heart weight per body weight ([1]; 5 mg/kg per day orally by gastric tube, mean ± SD, n = 5): 0.557 ± 0.024%
Inhibition of rise in blood pressure (FIG. 2) ([1]; 5 mg/kg per day orally, caudal artery sphygmomanometer, every 2 weeks): significantly higher action to inhibit a rise in the blood pressure
Blood pressure compared with sham group [2]: about the same as that of the sham group
Cerebral infarction in brain tissue ([2]; 5 rats, control group 4 rats out of 5): not found in any rats
Inhibition of rise in blood pressure (FIG. 1) ([2]; caudal artery sphygmomanometer, weekly, without anesthesia): significantly higher action to inhibit a rise in the blood pressure than the control group
Brain weight per body weight ([2]; mean ± SD, n = 5): 0.803 ± 0.02%
Heart weight per body weight ([2]; mean ± SD, n = 5): 0.424 ± 0.023%
Breaking energy ([3]; EZ-test): 0.0523 ± 0.0073 J
Breaking load ([3]; EZ-test): 99.46 ± 9.57 N
Bone density [3]: 1.479 ± 0.281 g/mL
Activity of alkaline phosphatase (osteoblastic cells): accelerates the activity of alkaline phosphatase
Activity of prolyl hydroxylase (osteoblastic cells): enhances the activity of prolyl hydroxylase
Proliferation of osteoblastic cells (osteoblastic cells): accelerates the proliferation of osteoblastic cells
